# Reference: patent publication US8030314B2, “Use of 2h-benzimidazol-2-one, 1,3-dihydro-1-(2{4-[3-(trifluoromethyl)phenyl]-1-piperazinyl}ethyl)-and its physiologically acceptable acid addition salts” (priority 2001, dated 2011)
# Columns and labels:
# tardive dyskinesias = test: persistent tardive dyskinesia model in baboons; assay type: in vivo; settings: baboons with persistent tardive dyskinesia induced by a haloperidol derivative for 41 weeks
# Excerpt: The clinical appearance of levodopa-induced dyskinesias and of tardive dyskinesias are very often similar. […] dyskinesias are frequently observed in chronic schizophrenic patients after long-term treatment with neuroleptics. Recently an animal model of tardive dyskinesia was developed by Eyles at al. 2000. Persistent tardive dyskinesias were induced in 6 baboons by application of a derivative of haloperidol for 41 weeks until the animals developed abnormal orofacial signs that were consistent with tardive dyskinesia. These symptoms persisted during the drug-free period. The extent of dyskinesias was assessed by using a score derived fromt that applied in humans (Abnormal Involuntary Movement Scale). There was a significant improvement of dyskinesias by more than 50% after application of flibanserin. That means that flibanserin is also helpful in the treatment of tardive dyskinesia in chronic schizophrenic patients.
# [1] = test system: cultured dopaminergic cells (from fetal rat mesencephalic tissue); test: survival of cultured dopaminergic cells exposed to 6-hydroxydopamine; assay type: cell-based; settings: toxin (6-hydroxydopamine) co-administered with flibanserin
# Method: The reason of developing Parkinson's disease is a chronic process leading to a loss of dopaminergic neurons in a certain area of the EPS (substantia nigra). That process may be simulated in an experiment using cultured dopaminergic cells (from fetal rat mesencephalic tissue) which are exposed to a selective toxin (6-hydroxydompamine). The experiments were conducted in accordance with the method of Michel and Hefti, 1990. When the toxin was added to the cell culture medium the survival time of the neurons was markedly diminished. […] This indicates additionally neuroprotective properties of flibanserin. On the basis of these experiments it can be expected that patients treated with flibanserin will take benefit from said neuroprotective effect by slowing down or stopping the progression of the disease . Moreover, if flibanserin is given in early stages of the disease, a steady process leading to more severe stages may be postponed or even avoided. In particular, the occurrence of levodopa-induced dyskinesias can be prevented. In-so-far, a synergistic effect of the common administration of conventional anti-Parkinson drugs along with flibanserin in the treatment of Parkinson's disease is to be expected as increased “ON”-periods and decreased “OFF”-periods may be obtained.
# [2] = test system: 5-HT inhibitory response (forskolin-stimulated cAMP accumulation); settings: rat cortex; read-out: reduced forskolin-stimulated cAMP accumulation (EC50); cited from earlier work
# rat cortical firing rate = settings: in vivo; cited from earlier work
# [3] = test system: levodopa-induced dyskinesias; test: levodopa-induced dyskinesias in MPTP-treated common marmosets; assay type: in vivo, common marmosets (callithrix jacchus)
# Method: In order to investigate the efficacy of flibanserin in the treatment of levodopa-induced dyskinesias, experiments in a primate model of Parkinson's disease were performed. 6 common marmosets (callithrix jacchus) that developed chronical Parkinsonian motor deficits after MPTP administration were treated orally with levodopa plus carbidopa for 3 weeks according to the procedure described by Pearce et al. (1995). […] The severity of dyskinesias was measured by assessing the extent of choreic and dystonic movements in all parts of the body.
# 5-HT-induced PI turnover = settings: rat cortex; read-out: antagonized 5-HT-induced PI turnover (Ki); cited from earlier work
smiles,measurement,setting,value
"O=c1[nH]c2ccccc2n1CCN1CCN(c2cccc(C(F)(F)F)c2)CC1 [flibanserin, 2H-benzimidazol-2-one, 1,3-dihydro-1-(2-{4-[3-(trifluoromethyl)phenyl]-1-piperazinyl}ethyl)-]",improvement of dyskinesias (score derived from Abnormal Involuntary Movement Scale),tardive dyskinesias,more than 50%
same,concentrations at which normal survival times were reached,[1],0.1 to 1 µM
same,survival time of neurons,[1],increased in a concentration-dependent manner
same,EC50,[2],913 nM
same,inhibition of rat cortical firing rate,rat cortical firing rate,dose-dependently inhibited rat cortical firing rate
same,effect of levodopa on rigidity and bradykinesia,[3]; flibanserin in addition to levodopa,not weakened
same,severity of dyskinesias (extent of choreic and dystonic movements),"[3]; flibanserin in addition to levodopa, MPTP marmosets treated orally with levodopa plus carbidopa for 3 weeks",significantly reduced said dyskinesias
same,dyskinesia symptoms in monkeys with less severe dyskinesia,[3]; some of the monkeys with less severe dyskinesia,symptoms disappeared entirely
same,Ki,5-HT-induced PI turnover,113 nM
